{"source": "PubChem BioAssay (NCI)", "assay_in_all_cases": "inhibition of tumour cell growth, NCI panel, 48 h", "key": {"SNB-19 CNS": {"test_system": "SNB-19 CNS"}, "NCI-H23 lung": {"test_system": "NCI-H23 lung"}, "NCI-H226 lung": {"test_system": "NCI-H226 lung"}, "SK-MEL-28 melanoma": {"test_system": "SK-MEL-28 melanoma"}, "MALME-3M melanoma": {"test_system": "MALME-3M melanoma"}, "SK-MEL-5 melanoma": {"test_system": "SK-MEL-5 melanoma"}, "UACC-62 melanoma": {"test_system": "UACC-62 melanoma"}, "HS 578T breast": {"test_system": "HS 578T breast"}, "SK-OV-3 ovarian": {"test_system": "SK-OV-3 ovarian"}, "UACC-257 melanoma": {"test_system": "UACC-257 melanoma"}, "BT-549 breast": {"test_system": "BT-549 breast"}, "A498 renal": {"test_system": "A498 renal"}, "OVCAR-5 ovarian": {"test_system": "OVCAR-5 ovarian"}, "DU-145 prostate": {"test_system": "DU-145 prostate"}, "CAKI-1 renal": {"test_system": "CAKI-1 renal"}, "T-47D breast": {"test_system": "T-47D breast"}, "EKVX NSCLC": {"test_system": "EKVX NSCLC"}}, "note": "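Growth conditions: 96-well plates. Treatment: test compound, 48 hours, 5 concentrations. Analysis: linear interpolation between bracketing concentrations; unreached endpoints set to highest concentration. GI50 = concentration required for 50% inhibition of growth. TGI: concentration producing complete growth inhibition.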", "data": [{"smiles": "CCCCCCCCCCCCCCCCCC1=NCCN1C(=O)OCCO", "values": [{"measurement": "GI50", "setting": "SNB-19 CNS", "result": 3.39, "unit": "µM"}, {"measurement": "TGI", "setting": "SNB-19 CNS", "result": 12.9, "unit": "µM"}, {"measurement": "GI50", "setting": "NCI-H23 lung", "result": 5.64, "unit": "µM"}, {"measurement": "TGI", "setting": "NCI-H23 lung", "result": "> 100", "unit": "µM"}, {"measurement": "GI50", "setting": "NCI-H226 lung", "result": 6.24, "unit": "µM"}, {"measurement": "TGI", "setting": "NCI-H226 lung", "result": 45.2, "unit": "µM"}, {"measurement": "GI50", "setting": "SK-MEL-28 melanoma", "result": 5.92, "unit": "µM"}, {"measurement": "TGI", "setting": "SK-MEL-28 melanoma", "result": 24.5, "unit": "µM"}, {"measurement": "GI50", "setting": "MALME-3M melanoma", "result": 12.9, "unit": "µM"}, {"measurement": "TGI", "setting": "MALME-3M melanoma", "result": 42.9, "unit": "µM"}, {"measurement": "GI50", "setting": "SK-MEL-5 melanoma", "result": 2.93, "unit": "µM"}, {"measurement": "TGI", "setting": "SK-MEL-5 melanoma", "result": 10.3, "unit": "µM"}, {"measurement": "GI50", "setting": "UACC-62 melanoma", "result": 1.87, "unit": "µM"}, {"measurement": "TGI", "setting": "UACC-62 melanoma", "result": 3.46, "unit": "µM"}, {"measurement": "GI50", "setting": "HS 578T breast", "result": 4.08, "unit": "µM"}, {"measurement": "TGI", "setting": "HS 578T breast", "result": "> 100", "unit": "µM"}, {"measurement": "GI50", "setting": "SK-OV-3 ovarian", "result": 2.5, "unit": "µM"}, {"measurement": "TGI", "setting": "SK-OV-3 ovarian", "result": 7.04, "unit": "µM"}, {"measurement": "GI50", "setting": "UACC-257 melanoma", "result": 2.28, "unit": "µM"}, {"measurement": "TGI", "setting": "UACC-257 melanoma", "result": 5.68, "unit": "µM"}, {"measurement": "GI50", "setting": "BT-549 breast", "result": 3.19, "unit": "µM"}, {"measurement": "TGI", "setting": "BT-549 breast", "result": 18.3, "unit": "µM"}, {"measurement": "GI50", "setting": "A498 renal", "result": 9.29, "unit": "µM"}, {"measurement": "TGI", "setting": "A498 renal", "result": 56.7, "unit": "µM"}, {"measurement": "GI50", "setting": "OVCAR-5 ovarian", "result": 3.35, "unit": "µM"}, {"measurement": "TGI", "setting": "OVCAR-5 ovarian", "result": 26.4, "unit": "µM"}, {"measurement": "GI50", "setting": "DU-145 prostate", "result": 1.84, "unit": "µM"}, {"measurement": "TGI", "setting": "DU-145 prostate", "result": 3.37, "unit": "µM"}, {"measurement": "GI50", "setting": "CAKI-1 renal", "result": 1.75, "unit": "µM"}, {"measurement": "TGI", "setting": "CAKI-1 renal", "result": 3.83, "unit": "µM"}, {"measurement": "GI50", "setting": "T-47D breast", "result": 2.89, "unit": "µM"}, {"measurement": "TGI", "setting": "T-47D breast", "result": 9.48, "unit": "µM"}, {"measurement": "GI50", "setting": "EKVX NSCLC", "result": 1.75, "unit": "µM"}, {"measurement": "TGI", "setting": "EKVX NSCLC", "result": 4.24, "unit": "µM"}]}]}
